Assays:
Lung cancer H460 = assay: in vitro anti-tumor activity assay (MTT method); assay type: cell-based, human; conditions: 48 h of culture
Method: (§1) Five human tumor cell lines were selected and cultured in RPMI-1640 (Gibco) or DMEM (Gibco) or GMEM/F12 medium (Gibco) containing 10% inactivated fetal bovine serum, 100 U/ml penicillin and […] streptomycin in an incubator containing 5% CO2 at 37°C. Logarithmically growing cells were seeded in 96-well plates (100 µl per well, 2 x 10^4 cells) using the MTT method, while setting blank control wells. After overnight incubation in the incubator, 100 µl of drug (final concentration 25 µM diluted to 0.39 µM, a total of 7 groups of drug concentrations) was added, an equal volume of culture medium was added in the blank control wells, and 3 duplicate wells were set for each drug concentration. After 48 h of culture, the supernatant was discarded. After washing twice with PBS, 100 µl of MTT (5mg/ml) was added to each well, and the culture was continued for 2 h. Absorbance (A492nm) was measured by a microplate reader to calculate the inhibition rate of the drug on tumor cells.
(§2) IC50 values of compounds on tumor cells were calculated using GraphPad software. […] Table 2. In vitro anti-tumor activity IC50 (µM) of example compounds

Liver cancer HepG2 = assay: in vitro anti-tumor activity assay (MTT method); assay type: cell-based, human; conditions: Liver cancer HepG2, culture medium High-sugar DMEM, 48 h of culture
Method: as §1, §2

Lung cancer A549 = assay: in vitro anti-tumor activity assay (MTT method); assay type: cell-based, human; conditions: Lung cancer A549, culture medium F12, 48 h of culture
Method: as §1, §2

Prostate cancer PC-3 = assay: in vitro anti-tumor activity assay (MTT method); assay type: cell-based, human; conditions: Prostate cancer PC-3, culture medium F12, 48 h of culture
Method: as §1, §2

Prostate cancer LNcap = assay: in vitro anti-tumor activity assay (MTT method); assay type: cell-based, human; conditions: culture medium RPMI-1640, 48 h of culture
Method: as §1, §2

A549 lung cancer cells = assay: in vivo anti-tumor efficacy assay, subcutaneous tumor model; conditions: BALB/c nude mice, intraperitoneally 20 mg/kg once per two days, 10 times; for Tumor inhibition rate: calculated from tumor weight; for Mean tumor weight (g) (mean ± SD): weighed on 2nd day after last administration
Method: An in vivo efficacy evaluation model was established in BALB/c nude mice. Each mouse was inoculated subcutaneously with 0.15 mL of tumor cell suspension (A549 lung cancer cells, 2 x 10^7 cells/ml) in the axillary fossa of the right forelimb. When the inoculated cells grew to 300 mm^3, the administration was started. On the 22nd day after inoculation, the mice were intraperitoneally administered (20 mg/kg) once per two days for a total of 10 times. On the 2nd day after the last administration, all the tumor-bearing mice were sacrificed, the tumors were weighed and the tumor inhibition rate was calculated. […] Table 3 Results of in vivo anti-tumor activity of the example compounds

[1] = Homo sapiens, NCI-H460, Lung cancer H460, culture medium High-sugar DMEM

## CCC(C(=O)N[C@H](CNC1CC(C)(C)NC(C)(C)C1)Cc1ccc(-c2ccccc2)cc1)C1CCCCC1 (stereo partly drawn) [Cpd009, N-((S)-1-([1,1'-biphenyl]-4-yl)-3-((2,2,6,6-tetramethylpiperidin-4-yl)amino)propan-2-yl)-2-cyclohexylbutanamide]
Lung cancer H460; [1]
  IC50: 2.26 µM
Liver cancer HepG2; Homo sapiens
  IC50: 1.47 µM
Lung cancer A549; Homo sapiens
  IC50: 1.94 µM
Prostate cancer PC-3; Homo sapiens
  IC50: 3.73 µM
Prostate cancer LNcap; Homo sapiens
  IC50: 1.51 µM

## CC1(C)CC(NC(=O)C(Cc2ccc(-c3ccccc3)cc2)NC(=O)c2cc3ccccc3n2Cc2ccccc2)CC(C)(C)N1 (stereo not drawn) [PL-AC-15]
Lung cancer H460; [1]
  IC50: 2.37 µM
Liver cancer HepG2; Homo sapiens
  IC50: 1.91 µM
Lung cancer A549; Homo sapiens
  IC50: 4.38 µM
Prostate cancer PC-3; Homo sapiens
  IC50: 4.31 µM
Prostate cancer LNcap; Homo sapiens
  IC50: 1.92 µM

## CC(=O)O[C@@]12CO[C@@H]1C[C@H](O)[C@@]1(C)C(=O)[C@H](O)C3=C(C)[C@@H](OC(=O)[C@H](O)[C@@H](NC(=O)OC(C)(C)C)c4ccccc4)C[C@@](O)([C@@H](OC(=O)c4ccccc4)[C@H]21)C3(C)C [Docetaxol, docetaxel]
A549 lung cancer cells
  Tumor inhibition rate: 5.29%
  Mean tumor weight (g) (mean ± SD): 0.631 ± 0.231 g

## COc1ccc2cc(C(C)C(=O)NC(Cc3ccc(-c4ccccc4)cc3)C(=O)NC3CC(C)(C)NC(C)(C)C3)ccc2c1 (stereo not drawn) [PL-AC-202]
Lung cancer H460; [1]
  IC50: 1.65 µM
Liver cancer HepG2; Homo sapiens
  IC50: 0.43 µM
Lung cancer A549; Homo sapiens
  IC50: 3.05 µM
Prostate cancer PC-3; Homo sapiens
  IC50: 1.65 µM
Prostate cancer LNcap; Homo sapiens
  IC50: 3.24 µM
A549 lung cancer cells
  Tumor inhibition rate: 19.37%
  Mean tumor weight (g) (mean ± SD): 0.537 ± 0.198 g

## N.N.[Cl][Pt][Cl] [Cisplati num, Cisplatinum]
Lung cancer H460; Lung cancer H460, culture medium High-sugar DMEM
  IC50: 20.4 µM
Liver cancer HepG2
  IC50: 30.9 µM
Lung cancer A549
  IC50: 34 µM
Prostate cancer PC-3
  IC50: 68.6 µM
Prostate cancer LNcap
  IC50: 11.6 µM

## CC1(C)CC(NC[C@H](Cc2ccc(OCc3c(Cl)cccc3Cl)cc2)NC(=O)C/C=C/c2ccccc2)CC(C)(C)N1 [Cpd001, (S,E)-N-(1-(4-((2,6-dichlor obenzyl)oxy)phenyl)-3-((2,2,6,6-tetramethylpiperidin-4-yl)amino)propan-2-yl)-4-phenylbut-3-enamide]
Lung cancer H460; [1]
  IC50: 0.99 µM
Liver cancer HepG2; Homo sapiens
  IC50: 0.97 µM
Lung cancer A549; Homo sapiens
  IC50: 2.69 µM
Prostate cancer PC-3; Homo sapiens
  IC50: 3.03 µM
Prostate cancer LNcap; Homo sapiens
  IC50: 3.76 µM

## CC1(C)CC(NC[C@H](Cc2ccc(-c3ccccc3)cc2)NC(=O)C=Cc2ccccc2)CC(C)(C)N1 (stereo in doubt) [Cpd014, (S)-N-(1-([1,1'-biphenyl]-4-yl)-3-((2,2,6,6-tetramethylpiperidin-4-yl)amino)propan-2-yl)cinnamamide]
Lung cancer H460; [1]
  IC50: 1.58 µM
Liver cancer HepG2; Homo sapiens
  IC50: 1.09 µM
Lung cancer A549; Homo sapiens
  IC50: 2.34 µM
Prostate cancer PC-3; Homo sapiens
  IC50: 3.31 µM
Prostate cancer LNcap; Homo sapiens
  IC50: 1.02 µM
A549 lung cancer cells
  Tumor inhibition rate: 32.73%
  Mean tumor weight (g) (mean ± SD): 0.448 ± 0.128 g

— patent publication EP4640672A1, “ETHYLENEDIAMINE DERIVATIVE, AND PREPARATION METHOD THEREFOR AND USE THEREOF” (Jiangsu Protelight Pharmaceutical & Biotechnology Co., Ltd., priority 2022, dated 2024)
